{"source": "patent US4201866A", "about": "“O-Hemi-succinate of propranolol” (American Home Products Corporation, priority 1977, dated 1980)", "key": {"[1]": {"conditions": "cited from earlier work"}, "[2]": {"assay": "Oral administration of a reduced dose of propranolol-o-hemi-succinate hydrochloride; plasma levels of free propranolol (Example 4)", "format": "in vivo, beagle dogs", "procedure": "Two beagle dogs were given an oral dose of 13.4 mg of propranolol-O-hemi-succinate hydrochloride (equivalent to 10 mg. propranolol HCl). Blood samples were obtained at regular intervals after drug administration and plasma analyzed for free propranolol. Plasma levels of free propranolol were compared to those obtained following administration of 80 mg dose of propranolol HCl."}, "[3]": {"assay": "Oral administration of propranolol-o-hemi-succinate HCl and propranolol HCl; plasma levels of free propranolol (Example 2)", "format": "in vivo, beagle dogs", "conditions": "80 mg propranolol HCl or equivalent", "procedure": "In this experiment, four beagle dogs were given an 80 mg. oral dose of propranolol HCl or an equivalent dose of the o-hemi-succinate. The animals were divided into two groups of two, each group receiving the drugs according to a crossover design. The crossover experiment was repeated twice. A period of at least one week elapsed between each dosing day. Blood samples were obtained at regular intervals after dosing a plasma was analyzed for free propranolol concentrations.\n(§1) Plasma was analyzed for free propranolol by a TLC fluorometric procedure. Two ml samples were mixed with 2 ml of pH 10 buffer and extracted with 25 ml of ethyl ether. A 20 ml aliquot from the ether phase was evaporated to dryness and the dry residue was dissolved in 100 μl of ethanol. Twenty-five μl aliquots were spotted on TLC plates of silica gel along with standard solutions of propranolol. The plates were developed in a saturated tank containing the solvent system methanol (100 ml): concentrated NH4 OH (0.4 ml). After development, the plates were dried and sprayed with a 50% solution of propylene glycol in water. They were then read in the fluorescence mode of a Schoeffel spectrodensitometer. The limit of reliable quantitation was 2 ng. of propranolol per ml of plasma."}, "[4]": {"assay": "Intravenous administration of propranolol HCl and propranolol-o-hemi-succinate HCl; plasma levels of free propranolol (Example 3)", "format": "in vivo, beagle dogs", "conditions": "i.v., 20 mg propranolol HCl or equivalent", "procedure": "as §1\nIn this experiment, the same four dogs used in Example 2 were administered a 20 mg intravenous dose of propranolol HCl on one experimental day and an equivalent dose of the o-hemi-succinate on a second day. A period of one week elapsed between each administration. Blood samples were collected and analyzed as above."}}, "note": "Where “and” joins values, the source holds several entries; their conditions need not be identical. Equal entries are not always repeated. Structures can show the parent of a compound that is named as a salt. Where two headings read alike, the source gives them in different places.", "data": [{"compound": "CC(C)NCC(O)COc1cccc2ccccc12", "note": "(centres unmarked) [propranolol HCl, 1-isopropyl-amino-3-(1-naphthoxy)-2-propanol]", "values": [{"measurement": "unchanged active material reaching the systemic circulation after oral administration", "setting": "[1]; because of extensive metabolism", "value": "little unchanged active material"}, {"measurement": "patient to patient variation of plasma levels", "setting": "[1]; oral", "value": "large patient to patient variation"}, {"measurement": "Plasma level of free propranolol", "setting": "[2]; 0 h, 80 mg propranolol HCl or 13.4 mg hemi-succinate HCl, individual dogs", "value": 0}, {"measurement": "AUC of free propranolol", "setting": "[2]; 13.4 mg hemi-succinate HCl or 80 mg propranolol HCl, dog #353 (101, 92), dog #250 (114, 168), 360 min", "value": 168}, {"measurement": "Plasma level of free propranolol", "setting": "[2]; 1/2 hour after dosing, 80 mg propranolol HCl or 13.4 mg hemi-succinate HCl, individual dogs, 30 min", "value": 18}, {"measurement": "Plasma level of free propranolol", "setting": "[2]; 1 hour after dosing, 80 mg propranolol HCl or 13.4 mg hemi-succinate HCl, individual dogs, 60 min", "value": 44}, {"measurement": "Plasma level of free propranolol", "setting": "[2]; 2 hours after dosing, 80 mg propranolol HCl or 13.4 mg hemi-succinate HCl, individual dogs, 120 min", "value": "51 and 24"}, {"measurement": "Plasma level of free propranolol", "setting": "[2]; 4 hours after dosing, 80 mg propranolol HCl or 13.4 mg hemi-succinate HCl, individual dogs, 240 min", "value": "26 and 7"}, {"measurement": "Plasma level of free propranolol", "setting": "[2]; 6 hours after dosing, 80 mg propranolol HCl or 13.4 mg hemi-succinate HCl, individual dogs", "value": 0}, {"measurement": "AUC at 6 h", "setting": "[2]; dog, plasma, po, 80 mg, 13.4 mg hemi-succinate HCl or 80 mg propranolol HCl, dog #353 (101, 92), dog #250 (114, 168)", "value": 92, "unit": "ng·h/mL"}, {"measurement": "concentration at 0.5 h", "setting": "[2]; dog, plasma, po, 80 mg, 1/2 hour after dosing, 80 mg propranolol HCl or 13.4 mg hemi-succinate HCl, individual dogs, read-out: Plasma level of free propranolol", "value": 10, "unit": "ng/mL"}, {"measurement": "concentration at 1 h", "setting": "[2]; dog, plasma, po, 80 mg, 1 hour after dosing, 80 mg propranolol HCl or 13.4 mg hemi-succinate HCl, individual dogs, read-out: Plasma level of free propranolol", "value": 38, "unit": "ng/mL"}, {"measurement": "concentration at 6 h", "setting": "[2]; dog, plasma, po, 80 mg, 6 hours after dosing, 80 mg propranolol HCl or 13.4 mg hemi-succinate HCl, individual dogs, read-out: Plasma level of free propranolol", "value": 9, "unit": "ng/mL"}, {"measurement": "Plasma level of free propranolol", "setting": "[3]; 0 h, individual dogs", "value": 0, "unit": "ng/mL"}, {"measurement": "Mean plasma level of free propranolol", "setting": "[3]; 0 h, mean of Study 1, Study 2 or overall", "value": 0, "unit": "ng/mL"}, {"measurement": "C.V. of overall mean AUC 0-6 hr", "setting": "[3]", "value": 65, "unit": "%"}, {"measurement": "s.d. of overall mean AUC 0-6 hr", "setting": "[3]", "value": 87, "unit": "ng·h/mL"}, {"measurement": "AUC 0-6 hr of free propranolol", "setting": "[3]; individual dogs, listed as propranolol hydrochloride, 360 min", "value": "69 ng·h/mL and 63 ng·h/mL and 29 ng·h/mL and 160 ng·h/mL and 189 ng·h/mL and 171 ng·h/mL and 297 ng·h/mL and 99 ng·h/mL"}, {"measurement": "Plasma level of free propranolol", "setting": "[3]; 1/2 hr after dosing, individual dogs", "value": 0, "unit": "ng/mL"}, {"measurement": "Plasma level of free propranolol", "setting": "[3]; 1/2 hr after dosing, individual dogs, 30 min, listed as propranolol hydrochloride, 30 min", "value": "23 ng/mL and 103 ng/mL and 24 ng/mL"}, {"measurement": "Plasma level of free propranolol", "setting": "[3]; 1/2 hr after dosing, individual dogs, listed as propranolol hydrochloride", "value": "trace"}, {"measurement": "Plasma level of free propranolol", "setting": "[3]; 1 hr after dosing, individual dogs, listed as propranolol hydrochloride", "value": "trace and 0 ng/ml"}, {"measurement": "Plasma level of free propranolol", "setting": "[3]; 1 hr after dosing, individual dogs, listed as propranolol hydrochloride, 60 min", "value": "11 ng/mL and 56 ng/mL and 31 ng/mL and 101 ng/mL and 24 ng/mL"}, {"measurement": "Plasma level of free propranolol", "setting": "[3]; 2 hr after dosing, individual dogs, listed as propranolol hydrochloride", "value": "trace"}, {"measurement": "Plasma level of free propranolol", "setting": "[3]; 2 hr after dosing, individual dogs, listed as propranolol hydrochloride, 120 min", "value": "23 ng/mL and 14 ng/mL and 45 ng/mL and 51 ng/mL and 65 ng/mL and 19 ng/mL"}, {"measurement": "Plasma level of free propranolol", "setting": "[3]; 4 hr after dosing, individual dogs, listed as propranolol hydrochloride", "value": "trace"}, {"measurement": "Plasma level of free propranolol", "setting": "[3]; 4 hr after dosing, individual dogs, listed as propranolol hydrochloride, 240 min", "value": "26 ng/mL and 14 ng/mL and 12 ng/mL and 36 ng/mL and 33 ng/mL and 17 ng/mL"}, {"measurement": "Plasma level of free propranolol", "setting": "[3]; 6 hr after dosing, individual dogs, listed as propranolol hydrochloride", "value": "0 ng/ml and trace"}, {"measurement": "Plasma level of free propranolol", "setting": "[3]; 6 hr after dosing, individual dogs, listed as propranolol hydrochloride, 360 min", "value": "17 ng/mL and 21 ng/mL and 6 ng/mL"}, {"measurement": "half-life", "setting": "[3]; dog, plasma", "value": 1.8, "unit": "h"}, {"measurement": "AUC at 6 h", "setting": "[3]; dog, plasma, po, 80 mg, read-out: average AUC (0-6 hr.) of free propranolol, overall study", "value": 132, "unit": "ng·h/mL"}, {"measurement": "Plasma level of free propranolol", "setting": "[4]; 0 h, individual dogs", "value": 0, "unit": "ng/mL"}, {"measurement": "Mean plasma level of free propranolol", "setting": "[4]; 0 h, mean", "value": 0, "unit": "ng/mL"}, {"measurement": "Plasma level of free propranolol", "setting": "[4]; 1/2 hr after dosing, individual dogs, 30 min", "value": "232 ng/mL and 269 ng/mL and 144 ng/mL"}, {"measurement": "Plasma level of free propranolol", "setting": "[4]; 5 min after dosing, individual dogs, 5 min", "value": "391 ng/mL and 312 ng/mL and 376 ng/mL and 194 ng/mL"}, {"measurement": "Plasma level of free propranolol", "setting": "[4]; 10 min after dosing, individual dogs, 10 min", "value": "368 ng/mL and 319 ng/mL and 177 ng/mL"}, {"measurement": "Plasma level of free propranolol", "setting": "[4]; 15 min after dosing, individual dogs, 15 min", "value": "320 ng/mL and 271 ng/mL and 149 ng/mL"}, {"measurement": "Plasma level of free propranolol", "setting": "[4]; 1 hr after dosing, individual dogs, 60 min", "value": "207 ng/mL and 229 ng/mL and 128 ng/mL"}, {"measurement": "Plasma level of free propranolol", "setting": "[4]; 2 hr after dosing, individual dogs, 120 min", "value": "149 ng/mL and 119 ng/mL and 122 ng/mL"}, {"measurement": "Plasma level of free propranolol", "setting": "[4]; 4 hr after dosing, individual dogs, 240 min", "value": "114 ng/mL and 87 ng/mL and 61 ng/mL"}, {"measurement": "Plasma level of free propranolol", "setting": "[4]; 6 hr after dosing, individual dogs, 360 min", "value": "45 ng/mL and 28 ng/mL and 39 ng/mL"}, {"measurement": "concentration at 0.5 h", "setting": "[4]; dog, plasma, iv, 20 mg, 1/2 hr after dosing, individual dogs, read-out: Plasma level of free propranolol", "value": 280, "unit": "ng/mL"}, {"measurement": "concentration at 0.5 h", "setting": "[4]; dog, plasma, iv, 20 mg, 1/2 hr after dosing, mean, read-out: Mean plasma level of free propranolol", "value": 231, "unit": "ng/mL"}, {"measurement": "concentration at 5 min", "setting": "[4]; dog, plasma, iv, 20 mg, 5 min after dosing, mean, read-out: Mean plasma level of free propranolol", "value": 318, "unit": "ng/mL"}, {"measurement": "concentration at 10 min", "setting": "[4]; dog, plasma, iv, 20 mg, 10 min after dosing, mean, read-out: Mean plasma level of free propranolol", "value": 288, "unit": "ng/mL"}, {"measurement": "concentration at 0.25 h", "setting": "[4]; dog, plasma, iv, 20 mg, 15 min after dosing, mean, read-out: Mean plasma level of free propranolol", "value": 247, "unit": "ng/mL"}, {"measurement": "concentration at 1 h", "setting": "[4]; dog, plasma, iv, 20 mg, 1 hr after dosing, individual dogs, read-out: Plasma level of free propranolol", "value": 240, "unit": "ng/mL"}, {"measurement": "concentration at 1 h", "setting": "[4]; dog, plasma, iv, 20 mg, 1 hr after dosing, mean, read-out: Mean plasma level of free propranolol", "value": 201, "unit": "ng/mL"}, {"measurement": "concentration at 2 h", "setting": "[4]; dog, plasma, iv, 20 mg, 2 hr after dosing, individual dogs, read-out: Plasma level of free propranolol", "value": 191, "unit": "ng/mL"}, {"measurement": "concentration at 2 h", "setting": "[4]; dog, plasma, iv, 20 mg, 2 hr after dosing, mean, read-out: Mean plasma level of free propranolol", "value": 145, "unit": "ng/mL"}, {"measurement": "concentration at 4 h", "setting": "[4]; dog, plasma, iv, 20 mg, 4 hr after dosing, mean, read-out: Mean plasma level of free propranolol", "value": 79, "unit": "ng/mL"}, {"measurement": "concentration at 6 h", "setting": "[4]; dog, plasma, iv, 20 mg, 6 hr after dosing, individual dogs, read-out: Plasma level of free propranolol", "value": 53, "unit": "ng/mL"}, {"measurement": "concentration at 6 h", "setting": "[4]; dog, plasma, iv, 20 mg, 6 hr after dosing, mean, read-out: Mean plasma level of free propranolol", "value": 41, "unit": "ng/mL"}, {"measurement": "AUC at 6 h", "setting": "[4]; dog, plasma, iv, 20 mg, individual dogs, read-out: AUC 0-6 hr of free propranolol", "value": 974, "unit": "ng·h/mL"}, {"measurement": "AUC at 6 h", "setting": "[4]; dog, plasma, iv, 20 mg, read-out: average AUC of free propranolol", "value": 746, "unit": "ng·h/mL"}, {"measurement": "AUC 0-6 hr of free propranolol", "setting": "[4]; individual dogs, 360 min", "value": "744 ng·h/mL and 615 ng·h/mL and 534 ng·h/mL"}]}]}
